Tests used:
[1] = target: T1, Muscarinic acetylcholine receptor M2 (Homo sapiens) (UniProt P08172); assay: Antagonist potency at muscarinic receptor M2 in guinea pig atrium; assay type: functional, tissue-based; details: Cavia porcellus; Cardiac atrium; target entry is the homologue from another species
T1 sequence (whole entry): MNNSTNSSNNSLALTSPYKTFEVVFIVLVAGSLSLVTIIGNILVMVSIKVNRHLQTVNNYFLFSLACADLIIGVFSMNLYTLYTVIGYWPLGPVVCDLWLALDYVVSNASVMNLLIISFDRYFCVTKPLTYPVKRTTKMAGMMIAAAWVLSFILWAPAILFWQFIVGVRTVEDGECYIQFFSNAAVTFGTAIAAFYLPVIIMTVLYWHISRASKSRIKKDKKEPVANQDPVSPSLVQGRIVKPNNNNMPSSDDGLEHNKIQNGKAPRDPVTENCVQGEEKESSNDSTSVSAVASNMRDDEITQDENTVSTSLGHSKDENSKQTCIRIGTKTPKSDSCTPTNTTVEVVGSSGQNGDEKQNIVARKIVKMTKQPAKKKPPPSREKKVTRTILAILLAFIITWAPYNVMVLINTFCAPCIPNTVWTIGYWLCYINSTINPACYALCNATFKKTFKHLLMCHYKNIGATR

[2] = target: Muscarinic acetylcholine receptor M3 (Cavia porcellus) (UniProt Q8VH26); assay: Antagonist potency at muscarinic receptor M3 in guinea pig ileum; assay type: functional, tissue-based
Muscarinic acetylcholine receptor M3 (Cavia porcellus), sequence (Q8VH26 1-587): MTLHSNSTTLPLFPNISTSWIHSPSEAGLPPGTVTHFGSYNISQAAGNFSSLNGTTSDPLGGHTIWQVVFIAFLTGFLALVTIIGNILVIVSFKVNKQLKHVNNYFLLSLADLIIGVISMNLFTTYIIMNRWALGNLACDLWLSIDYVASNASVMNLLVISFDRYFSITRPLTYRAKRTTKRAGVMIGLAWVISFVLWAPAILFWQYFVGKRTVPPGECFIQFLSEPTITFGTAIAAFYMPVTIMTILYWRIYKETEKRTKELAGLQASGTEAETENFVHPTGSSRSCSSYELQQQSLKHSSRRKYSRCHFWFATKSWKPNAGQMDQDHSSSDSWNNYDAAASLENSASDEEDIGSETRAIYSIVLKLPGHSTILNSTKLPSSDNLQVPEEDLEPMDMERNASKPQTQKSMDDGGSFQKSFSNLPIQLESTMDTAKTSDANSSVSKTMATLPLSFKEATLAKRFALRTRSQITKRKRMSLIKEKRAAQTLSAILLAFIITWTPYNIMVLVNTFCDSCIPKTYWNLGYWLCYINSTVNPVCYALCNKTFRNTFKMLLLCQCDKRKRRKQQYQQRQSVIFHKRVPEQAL

[3] = target: T2, Muscarinic acetylcholine receptor M4 (Homo sapiens) (UniProt P08173); assay: Antagonist potency at muscarinic receptor M4 in rabbit vas deferens; assay type: functional, tissue-based; details: Oryctolagus cuniculus, target entry is the homologue from another species
T2 sequence (whole entry): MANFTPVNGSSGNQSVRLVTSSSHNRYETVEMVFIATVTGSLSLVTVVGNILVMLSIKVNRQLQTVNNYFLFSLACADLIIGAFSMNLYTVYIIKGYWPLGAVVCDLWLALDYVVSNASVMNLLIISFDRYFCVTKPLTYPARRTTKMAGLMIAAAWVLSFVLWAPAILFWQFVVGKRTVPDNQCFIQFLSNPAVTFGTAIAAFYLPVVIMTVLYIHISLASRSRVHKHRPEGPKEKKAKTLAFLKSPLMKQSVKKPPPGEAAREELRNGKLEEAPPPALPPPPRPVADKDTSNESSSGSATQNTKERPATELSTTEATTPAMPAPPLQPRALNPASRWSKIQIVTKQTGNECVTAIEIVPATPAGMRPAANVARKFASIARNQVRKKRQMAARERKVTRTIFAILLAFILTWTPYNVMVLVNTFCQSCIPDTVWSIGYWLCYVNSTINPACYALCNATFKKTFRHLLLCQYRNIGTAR

Mus musculus [4] = assay: Antinociceptive activity in mouse assessed as licking latency at 1.0 ug, icv after 60 mins by hot plate method; assay type: functional
[5] = target: T3, Muscarinic acetylcholine receptor M1 (Homo sapiens, UniProt P11229); assay: Displacement of [3H] N-methyl-scopolamine chloride from human muscarinic receptor M1 expressed in CHO cells; assay type: cell-based
T3 sequence (P11229 whole entry): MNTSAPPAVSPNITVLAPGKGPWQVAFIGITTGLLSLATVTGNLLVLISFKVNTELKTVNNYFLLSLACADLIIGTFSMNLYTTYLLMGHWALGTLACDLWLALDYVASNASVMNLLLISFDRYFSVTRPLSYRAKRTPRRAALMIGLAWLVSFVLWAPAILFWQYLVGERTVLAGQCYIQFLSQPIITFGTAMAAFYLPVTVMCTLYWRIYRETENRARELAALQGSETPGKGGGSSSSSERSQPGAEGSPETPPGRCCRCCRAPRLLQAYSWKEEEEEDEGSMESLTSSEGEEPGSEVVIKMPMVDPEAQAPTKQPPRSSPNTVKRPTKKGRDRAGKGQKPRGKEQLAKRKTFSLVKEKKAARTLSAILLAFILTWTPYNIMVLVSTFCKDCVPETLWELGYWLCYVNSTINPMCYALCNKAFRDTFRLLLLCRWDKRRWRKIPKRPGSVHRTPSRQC

[6] = target: Muscarinic acetylcholine receptor M3 (Homo sapiens, UniProt P20309); assay: Displacement of [3H] N-methyl-scopolamine chloride from human muscarinic receptor M3 expressed in CHO cells; assay type: cell-based
Muscarinic acetylcholine receptor M3, sequence (P20309 whole entry): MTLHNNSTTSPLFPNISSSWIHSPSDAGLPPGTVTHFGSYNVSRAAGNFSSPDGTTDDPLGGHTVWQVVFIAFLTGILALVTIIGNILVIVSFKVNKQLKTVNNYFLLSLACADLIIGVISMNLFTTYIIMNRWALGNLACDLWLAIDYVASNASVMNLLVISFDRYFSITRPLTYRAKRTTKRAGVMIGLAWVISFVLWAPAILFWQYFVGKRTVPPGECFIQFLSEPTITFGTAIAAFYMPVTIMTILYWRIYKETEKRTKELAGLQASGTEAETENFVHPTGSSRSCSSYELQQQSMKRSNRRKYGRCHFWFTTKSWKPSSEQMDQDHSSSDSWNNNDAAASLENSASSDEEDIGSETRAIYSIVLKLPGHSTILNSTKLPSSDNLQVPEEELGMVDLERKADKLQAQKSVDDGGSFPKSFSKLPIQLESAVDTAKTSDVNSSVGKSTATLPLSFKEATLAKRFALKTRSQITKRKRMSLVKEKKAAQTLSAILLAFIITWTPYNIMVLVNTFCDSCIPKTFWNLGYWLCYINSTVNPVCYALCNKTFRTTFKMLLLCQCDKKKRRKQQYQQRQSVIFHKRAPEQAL

[7] = target: T4, Muscarinic acetylcholine receptor M4 (Homo sapiens, UniProt P08173); assay: Displacement of [3H] N-methyl-scopolamine chloride from human muscarinic receptor M4 expressed in CHO cells; assay type: cell-based
T4 sequence (P08173 whole entry): T2 sequence (whole entry)

[8] = target: T5, Muscarinic acetylcholine receptor M5 (Homo sapiens, UniProt P08912); assay: Displacement of [3H] N-methyl-scopolamine chloride from human muscarinic receptor M5 expressed in CHO cells; assay type: cell-based
T5 sequence (P08912 whole entry): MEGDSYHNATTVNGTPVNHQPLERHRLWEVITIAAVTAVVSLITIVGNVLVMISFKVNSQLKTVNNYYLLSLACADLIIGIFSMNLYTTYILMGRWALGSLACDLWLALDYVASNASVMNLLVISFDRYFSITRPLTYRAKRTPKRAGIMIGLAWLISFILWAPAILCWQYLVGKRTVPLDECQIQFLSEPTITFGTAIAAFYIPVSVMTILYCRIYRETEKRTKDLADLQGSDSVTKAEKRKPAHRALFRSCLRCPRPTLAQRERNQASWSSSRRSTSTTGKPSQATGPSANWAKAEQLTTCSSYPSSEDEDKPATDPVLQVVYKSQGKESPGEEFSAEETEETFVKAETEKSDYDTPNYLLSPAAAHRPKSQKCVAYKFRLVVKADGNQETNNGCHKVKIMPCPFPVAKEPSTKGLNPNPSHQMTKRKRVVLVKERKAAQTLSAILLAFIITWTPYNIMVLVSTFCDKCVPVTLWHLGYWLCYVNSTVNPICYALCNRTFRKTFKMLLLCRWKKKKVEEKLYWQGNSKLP

Mus musculus [9] = assay: Antinociceptive activity in mouse assessed as licking latency at 0.005 ug, icv after 15 mins by hot plate method; assay type: functional
Mus musculus [10] = assay: Antinociceptive activity in mouse assessed as licking latency at 0.01 ug, icv after 15 mins by hot plate method; assay type: functional
Mus musculus [11] = assay: Antinociceptive activity in mouse assessed as licking latency at 0.05 ug, icv after 15 mins by hot plate method; assay type: functional
Mus musculus [12] = assay: Antinociceptive activity in mouse assessed as licking latency at 1.0 ug, icv after 15 mins by hot plate method; assay type: functional
Mus musculus [13] = assay: Antinociceptive activity in mouse assessed as licking latency at 0.005 ug, icv after 30 mins by hot plate method; assay type: functional
Mus musculus [14] = assay: Antinociceptive activity in mouse assessed as licking latency at 0.01 ug, icv after 30 mins by hot plate method; assay type: functional
Mus musculus [15] = assay: Antinociceptive activity in mouse assessed as licking latency at 0.05 ug, icv after 30 mins by hot plate method; assay type: functional
Mus musculus [16] = assay: Antinociceptive activity in mouse assessed as licking latency at 1.0 ug, icv after 30 mins by hot plate method; assay type: functional
Mus musculus [17] = assay: Antinociceptive activity in mouse assessed as licking latency at 0.005 ug, icv after 45 mins by hot plate method; assay type: functional
Mus musculus [18] = assay: Antinociceptive activity in mouse assessed as licking latency at 0.01 ug, icv after 45 mins by hot plate method; assay type: functional
Mus musculus [19] = assay: Antinociceptive activity in mouse assessed as licking latency at 0.05 ug, icv after 45 mins by hot plate method; assay type: functional
Mus musculus [20] = assay: Antinociceptive activity in mouse assessed as licking latency at 1.0 ug, icv after 45 mins by hot plate method; assay type: functional
Mus musculus [21] = assay: Antinociceptive activity in mouse assessed as licking latency at 0.005 ug, icv after 60 mins by hot plate method; assay type: functional
Mus musculus [22] = assay: Antinociceptive activity in mouse assessed as licking latency at 0.01 ug, icv after 60 mins by hot plate method; assay type: functional
Mus musculus [23] = assay: Antinociceptive activity in mouse assessed as licking latency at 0.05 ug, icv after 60 mins by hot plate method; assay type: functional
Mus musculus [24] = assay: Antinociceptive activity in mouse assessed as licking latency at 5 mg/kg, ip by hot plate method; assay type: functional; details: route intraperitoneal
Mus musculus [25] = assay: Antinociceptive activity in mouse assessed as licking latency at 1 mg/kg, ip by hot plate method; assay type: functional; details: route intraperitoneal
Acetylcholinesterase = Acetylcholinesterase (Homo sapiens, UniProt P22303); assay: Inhibition of human erythrocyte recombinant AchE after 20 mins
Acetylcholinesterase, sequence (P22303 whole entry): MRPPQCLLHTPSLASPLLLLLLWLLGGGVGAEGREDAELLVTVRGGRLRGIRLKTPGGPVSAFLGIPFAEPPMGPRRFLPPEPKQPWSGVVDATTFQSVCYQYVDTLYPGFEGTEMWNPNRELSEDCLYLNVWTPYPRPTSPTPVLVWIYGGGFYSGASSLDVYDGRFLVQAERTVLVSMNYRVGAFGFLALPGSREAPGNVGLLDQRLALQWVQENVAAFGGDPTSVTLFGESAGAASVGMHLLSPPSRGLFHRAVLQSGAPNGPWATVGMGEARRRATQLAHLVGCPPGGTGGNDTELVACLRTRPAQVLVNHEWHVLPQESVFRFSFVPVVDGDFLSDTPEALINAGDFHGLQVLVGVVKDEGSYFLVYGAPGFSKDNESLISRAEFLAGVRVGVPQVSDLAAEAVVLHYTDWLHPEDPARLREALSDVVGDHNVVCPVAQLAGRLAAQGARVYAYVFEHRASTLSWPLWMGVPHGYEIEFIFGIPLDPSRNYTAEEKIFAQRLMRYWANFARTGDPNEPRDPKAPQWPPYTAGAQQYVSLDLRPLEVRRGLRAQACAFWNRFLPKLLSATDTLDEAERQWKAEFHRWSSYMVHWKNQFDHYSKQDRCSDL

Cholinesterase = Cholinesterase (Homo sapiens, UniProt P06276); assay: Inhibition of human serum recombinant BChE after 20 mins
Cholinesterase, sequence (P06276 whole entry): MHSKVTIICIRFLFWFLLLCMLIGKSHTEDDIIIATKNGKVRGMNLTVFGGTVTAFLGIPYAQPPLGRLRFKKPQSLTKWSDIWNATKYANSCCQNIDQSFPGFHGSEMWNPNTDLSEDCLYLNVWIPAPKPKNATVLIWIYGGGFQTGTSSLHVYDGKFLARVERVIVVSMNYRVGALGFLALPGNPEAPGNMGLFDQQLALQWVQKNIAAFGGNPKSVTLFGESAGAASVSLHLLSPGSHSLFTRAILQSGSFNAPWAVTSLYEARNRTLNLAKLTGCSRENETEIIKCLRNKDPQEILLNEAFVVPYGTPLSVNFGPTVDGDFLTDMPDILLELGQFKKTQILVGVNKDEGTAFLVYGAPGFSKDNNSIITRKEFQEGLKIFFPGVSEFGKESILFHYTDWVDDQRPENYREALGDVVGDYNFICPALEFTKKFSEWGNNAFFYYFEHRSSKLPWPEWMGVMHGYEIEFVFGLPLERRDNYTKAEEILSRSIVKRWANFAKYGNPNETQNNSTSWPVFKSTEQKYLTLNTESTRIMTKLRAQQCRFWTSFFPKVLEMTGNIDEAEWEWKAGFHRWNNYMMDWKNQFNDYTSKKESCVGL

Structure (SMILES)	pKb [1]	pKb [2]	pKb [3]	also measured
COc1ccccc1CNCCCCCC(=O)N1CCC(CC2CCN(C(=O)CCCCCNCc3ccccc3OC)CC2)CC1	6.29	5.48	5.37	
COc1ccccc1CNCCCCCCNc1ccc(Cc2ccc(NCCCCCCNCc3ccccc3OC)cc2)cc1	< 5	5.35	< 5	
COc1ccccc1CNCCCCCCNCCCCCCCCNCCCCCCNCc1ccccc1OC [METHOCTRAMINE]		6.32	6.45	Time (Mus musculus [4]): 15.5 s; Ki [5]: 83.2 nM; Ki [6]: 525 nM; Ki [7]: 107 nM; Ki [8]: 550 nM; Time (Mus musculus [9]): 20.2 s; Time (Mus musculus [10]): 23.4 s; Time (Mus musculus [11]): 24.1 s; Time (Mus musculus [12]): 20.6 s; Time (Mus musculus [13]): 18.4 s; Time (Mus musculus [14]): 22.5 s; Time (Mus musculus [15]): 23.9 s; Time (Mus musculus [16]): 21.3 s; Time (Mus musculus [17]): 18.3 s; Time (Mus musculus [18]): 19.3 s; Time (Mus musculus [19]): 18.7 s; Time (Mus musculus [20]): 17.5 s; Time (Mus musculus [21]): 16.6 s; Time (Mus musculus [22]): 17.2 s; Time (Mus musculus [23]): 14.4 s
COc1ccccc1CNCCCCCCN1CCC(C2CCN(CCCCCCNCc3ccccc3OC)CC2)CC1	7.12	6.08	6.13	
COc1ccccc1CNCCCCCCNc1ccc(CCc2ccc(NCCCCCCNCc3ccccc3OC)cc2)cc1	< 5		< 5.52	
CN1[C@@H]2CC[C@H]1C[C@@H](OC(=O)C(CO)c1ccccc1)C2 (some centres not stated) [ATROPINE]				Activity (Mus musculus [24]): 14.9 s
COc1ccccc1CNCCCCCC(=O)Nc1ccc(-c2ccc(NC(=O)CCCCCNCc3ccccc3OC)cc2)cc1	5.31		5.21	
C=CCN1CC[C@]23c4c5ccc(O)c4O[C@H]2C(=O)CC[C@@]3(O)[C@H]1C5 [NALOXONE]				Activity (Mus musculus [25]): 15.1 s
COc1ccccc1CNCCCCCC(=O)Nc1ccc(CCc2ccc(NC(=O)CCCCCNCc3ccccc3OC)cc2)cc1	< 5	< 5	< 5	
COc1ccccc1CNCCCCCC(=O)N1CCC(CCC2CCN(C(=O)CCCCCNCc3ccccc3OC)CC2)CC1	5.91	5.14	6.09	IC50 (Acetylcholinesterase): 135 nM; IC50 (Cholinesterase): 18.6 µM
COc1ccccc1CNCCCCCC(=O)N1CCC(C2CCN(C(=O)CCCCCNCc3ccccc3OC)CC2)CC1	6.5	5.62	6	
COc1ccccc1CNCCCCCC(=O)N1CCC(CCCC2CCN(C(=O)CCCCCNCc3ccccc3OC)CC2)CC1	5.11	5.09	< 5	
COc1ccccc1CNCCCCCCN1CCC(CC2CCN(CCCCCCNCc3ccccc3OC)CC2)CC1	7.16	5.82	5.39	
COc1ccccc1CNCCCCCCNc1ccc(-c2ccc(NCCCCCCNCc3ccccc3OC)cc2)cc1	< 5		< 5	
COc1ccccc1CNCCCCCCN1CCC(CCCC2CCN(CCCCCCNCc3ccccc3OC)CC2)CC1	7.52	6.37	5.64	
COc1ccccc1CNCCCCCC(=O)Nc1ccc(Cc2ccc(NC(=O)CCCCCNCc3ccccc3OC)cc2)cc1	5.47	5.32	< 5	

From ChEMBL document CHEMBL1147166, “Structure-activity relationships of methoctramine-related polyamines as muscarinic antagonist: effect of replacing the inner polymethylene chain with cyclic moieties” (Bioorg Med Chem, 2007)
